The results in this text go back to US20200397852A1, “DOSING REGIMENS FOR CELIAC DISEASE” (ImmusanT, Inc., priority 2017, published 2020).

Where two headings read alike, the source gives them in different places. Where a SMILES comes first, the peptide text is derived from it. [ ]: non-standard residue; d: D form. pGlu = O=C1CC[C@@H](C(=O)O)N1

A short description of data set [1]: Plasma concentrations of Nexvax2 peptides (UHPLC-MS/MS), pre-treatment and 45 minutes post-treatment. It is filed as in vivo, human. Conditions: 45 minutes after treatment at levels above 300 μg; almost all participants; LLOQ 2 ng/mL. As for the experimental part:
• Weekly Gastrointestinal Symptom Rating Scale (GSRS) scores, and relative change in plasma cytokine levels 4 hours after 150 microgram and higher doses. Plasma concentrations pre- and 45 min post-dose, and villous height to crypt depth ratio (VH:CrD) in 2nd part duodenal biopsies were assessed in Cohort 3.
Pharmacodynamics assessments included a 38plex assay to profile cytokine and chemokine concentrations in plasma before and up to 10 hours post-treatment at visits corresponding to administration of Nexvax2 at the previously determined maximum tolerated dose (150 μg) and at each of the higher dose levels. The percentage of leukocytes in whole blood that corresponded to T cells or helper, cytotoxic, regulatory, or activated (CCR6-positive) T cell subsets was estimated using epigenetic cell counting before and after dosing during the treatment period at times indicated. Pharmacokinetics of the three constituent peptides in Nexvax2 were assessed pre-treatment and 45 minutes post-treatment in cohort 3 at visits corresponding to dose levels 300 μg and above. Serum levels of anti-Nexvax2 antibodies were also assessed in cohort 3 at times shown. A four-week observational period followed the end of treatment visit.
Pharmacokinetics of Nexvax2 peptides was summarised by dose level and presented as mean (95% CI) plasma concentrations; correlation coefficients were used to compare the plasma concentrations of the Nexvax2 peptides. […] Data from cohorts 1 and 2 were analysed separately according to the Nexvax2 starting dose levels of 3 μg or 30 μg. […]
Blood was collected 30 minutes before and 45 minutes after study drug administration. […] Charles River Laboratories Ashland, LLC (Ashland, Ohio, USA) measured the concentrations of NPL001, NPL002, and NPL003. […] Reconstituted sample extracts were analysed with a UHPLC-MS/MS assay using a Waters Acquity® UPLC Peptide BEH C18 Column, 300 Å, 1.7-μm particle-size, 2.1×50 mm column (Waters Corporation, Milford, Mass., USA). […]

For data set [2] the following is noted: pH 7.
Data set [3] is described as follows: Solubility in normal saline at pH 7.

What is called solubility is how much of the substance goes into solution per volume. The low end stands for little dissolved substance, the high end for much dissolved substance. Take `CC(C)C[C@H](NC(=O)[C@@H]1CCC(=O)N1)C(=O)N[C@@H](CCC(N)=O)C(=O)N1CCC[C@H]1C(=O)N[C@@H](Cc1ccccc1)C(=O)N1CCC[C@H]1C(=O)N[C@@H](CCC(N)=O)C(=O)N1CCC[C@H]1C(=O)N[C@@H](CCC(=O)O)C(=O)N[C@@H](CC(C)C)C(=O)N1CCC[C@H]1C(=O)N[C@@H](Cc1ccc(O)cc1)C(=O)N1CCC[C@H]1C(=O)N[C@@H](CCC(N)=O)C(=O)N1CCC[C@H]1C(=O)N[C@@H](CCC(N)=O)C(N)=O` [NPL001, (pE)LQPFPQPELPYPQPQ-NH2] ([pGlu]LQPFPQPELPYPQPQ-NH2): the “Plasma concentration versus limit of quantification” value (“Plasma concentration versus limit” below) in data set [1] is “above the limit of quantification”. This molecule also gave a solubility in data set [2] of more than 50 mg/mL.
In the case of `NC(=O)CC[C@H](NC(=O)[C@H](Cc1c[nH]c2ccccc12)NC(=O)[C@@H]1CCCN1C(=O)[C@H](Cc1ccccc1)NC(=O)[C@@H]1CCCN1C(=O)[C@H](CCC(N)=O)NC(=O)[C@H](CCC(=O)O)NC(=O)[C@@H]1CCCN1C(=O)[C@H](CCC(N)=O)NC(=O)[C@@H]1CCCN1C(=O)[C@H](Cc1ccccc1)NC(=O)[C@@H]1CCCN1C(=O)[C@H](CCC(N)=O)NC(=O)[C@@H]1CCC(=O)N1)C(=O)N1CCC[C@H]1C(N)=O` [NPL002, (pE)QPFPQPEQPFPWQP-NH2] ([pGlu]QPFPQPEQPFPWQP-NH2), the “Plasma concentration versus limit” value in data set [1] is on record as “above the limit of quantification”. Also, the solubility in data set [3] is not above 25 mg/mL.
On to `CC[C@H](C)[C@H](NC(=O)[C@@H]1CCCN1C(=O)[C@H](CCC(N)=O)NC(=O)[C@H](CCC(=O)O)NC(=O)[C@@H]1CCCN1C(=O)[C@@H]1CCC(=O)N1)C(=O)N1CCC[C@H]1C(=O)N[C@@H](CCC(=O)O)C(=O)N[C@@H](CCC(N)=O)C(=O)N1CCC[C@H]1C(=O)N[C@@H](CCC(N)=O)C(=O)N1CCC[C@H]1C(=O)N[C@@H](Cc1ccc(O)cc1)C(=O)N1CCC[C@H]1C(=O)N[C@@H](CCC(N)=O)C(=O)N[C@@H](CCC(N)=O)C(N)=O` [NPL003], for which, in data set [1], the “Plasma concentration versus limit” value is recorded as “above the limit of quantification”. Moreover, the solubility in data set [3] is more than 50 mg/mL.
